Experimental data published in patent US11306084B2, “Integrin antagonists” (Saint Louis University, priority 2016, dated 2022).
Counter-ions that a name gives are not always drawn.

Key:
[1] = molecular target: T1, Recombinant human integrin ανβ5 (Homo sapiens, UniProt P06756+P18084); test: Solid Phase Receptor Assay (SPRA) for ανβ5 function; assay type: binding; conditions: plate-bound human vitronectin; read-out: αvβ5 SPRA IC50
T1 construct: purchased R&D Systems 2528-AV

[2] = molecular target: T2, Recombinant human integrin α5β1 (Homo sapiens, UniProt P05556+P08648); test: Solid Phase Receptor Assay (SPRA) for α5β1 function; assay type: binding; conditions: plate-bound human fibronectin
T2 construct: purchased R&D Systems 3230-A5
T2 sequence (P08648 42-995 limits assumed): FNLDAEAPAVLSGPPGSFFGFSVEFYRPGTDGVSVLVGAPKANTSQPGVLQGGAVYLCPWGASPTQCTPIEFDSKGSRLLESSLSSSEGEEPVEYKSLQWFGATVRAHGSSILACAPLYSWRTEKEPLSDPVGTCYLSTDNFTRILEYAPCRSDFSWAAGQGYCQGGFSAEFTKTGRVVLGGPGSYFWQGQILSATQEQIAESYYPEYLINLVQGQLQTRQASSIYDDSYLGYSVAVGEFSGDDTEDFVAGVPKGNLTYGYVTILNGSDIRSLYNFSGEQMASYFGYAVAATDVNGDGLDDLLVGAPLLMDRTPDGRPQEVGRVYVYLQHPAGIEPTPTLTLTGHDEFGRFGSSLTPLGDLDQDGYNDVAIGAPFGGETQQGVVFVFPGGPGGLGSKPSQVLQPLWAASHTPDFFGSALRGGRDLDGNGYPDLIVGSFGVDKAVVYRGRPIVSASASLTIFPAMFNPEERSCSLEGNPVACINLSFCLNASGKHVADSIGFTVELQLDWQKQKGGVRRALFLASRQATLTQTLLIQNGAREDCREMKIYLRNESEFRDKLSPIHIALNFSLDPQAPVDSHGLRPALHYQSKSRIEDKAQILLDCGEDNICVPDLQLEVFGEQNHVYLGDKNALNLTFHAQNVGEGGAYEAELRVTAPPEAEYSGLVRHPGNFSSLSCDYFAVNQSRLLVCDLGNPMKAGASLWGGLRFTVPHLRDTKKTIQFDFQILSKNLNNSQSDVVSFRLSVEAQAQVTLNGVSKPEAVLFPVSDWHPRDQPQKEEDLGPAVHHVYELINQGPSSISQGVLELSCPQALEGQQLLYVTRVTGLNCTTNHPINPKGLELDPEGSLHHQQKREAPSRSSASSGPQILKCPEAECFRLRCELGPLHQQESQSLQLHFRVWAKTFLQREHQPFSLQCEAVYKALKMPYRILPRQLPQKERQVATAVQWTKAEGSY
T2 sequence (P05556 21-728 limits assumed): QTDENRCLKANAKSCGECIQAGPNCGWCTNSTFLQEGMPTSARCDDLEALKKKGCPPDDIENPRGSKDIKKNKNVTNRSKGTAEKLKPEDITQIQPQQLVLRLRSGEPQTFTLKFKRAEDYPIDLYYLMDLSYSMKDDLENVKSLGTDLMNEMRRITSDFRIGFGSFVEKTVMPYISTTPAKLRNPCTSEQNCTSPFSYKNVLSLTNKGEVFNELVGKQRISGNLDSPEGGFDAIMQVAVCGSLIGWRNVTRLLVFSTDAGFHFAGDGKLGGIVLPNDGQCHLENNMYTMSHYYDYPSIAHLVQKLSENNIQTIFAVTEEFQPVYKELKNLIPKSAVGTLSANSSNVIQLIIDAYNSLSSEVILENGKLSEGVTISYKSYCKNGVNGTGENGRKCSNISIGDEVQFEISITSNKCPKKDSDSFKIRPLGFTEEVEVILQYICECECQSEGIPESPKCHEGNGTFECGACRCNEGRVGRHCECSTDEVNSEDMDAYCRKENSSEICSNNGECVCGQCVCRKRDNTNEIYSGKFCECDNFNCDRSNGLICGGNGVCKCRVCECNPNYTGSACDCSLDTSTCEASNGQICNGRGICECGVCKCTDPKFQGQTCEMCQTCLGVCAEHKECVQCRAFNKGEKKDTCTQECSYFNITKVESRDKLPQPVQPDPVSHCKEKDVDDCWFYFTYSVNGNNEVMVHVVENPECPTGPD

T1 sequence (P06756 31-992 limits assumed): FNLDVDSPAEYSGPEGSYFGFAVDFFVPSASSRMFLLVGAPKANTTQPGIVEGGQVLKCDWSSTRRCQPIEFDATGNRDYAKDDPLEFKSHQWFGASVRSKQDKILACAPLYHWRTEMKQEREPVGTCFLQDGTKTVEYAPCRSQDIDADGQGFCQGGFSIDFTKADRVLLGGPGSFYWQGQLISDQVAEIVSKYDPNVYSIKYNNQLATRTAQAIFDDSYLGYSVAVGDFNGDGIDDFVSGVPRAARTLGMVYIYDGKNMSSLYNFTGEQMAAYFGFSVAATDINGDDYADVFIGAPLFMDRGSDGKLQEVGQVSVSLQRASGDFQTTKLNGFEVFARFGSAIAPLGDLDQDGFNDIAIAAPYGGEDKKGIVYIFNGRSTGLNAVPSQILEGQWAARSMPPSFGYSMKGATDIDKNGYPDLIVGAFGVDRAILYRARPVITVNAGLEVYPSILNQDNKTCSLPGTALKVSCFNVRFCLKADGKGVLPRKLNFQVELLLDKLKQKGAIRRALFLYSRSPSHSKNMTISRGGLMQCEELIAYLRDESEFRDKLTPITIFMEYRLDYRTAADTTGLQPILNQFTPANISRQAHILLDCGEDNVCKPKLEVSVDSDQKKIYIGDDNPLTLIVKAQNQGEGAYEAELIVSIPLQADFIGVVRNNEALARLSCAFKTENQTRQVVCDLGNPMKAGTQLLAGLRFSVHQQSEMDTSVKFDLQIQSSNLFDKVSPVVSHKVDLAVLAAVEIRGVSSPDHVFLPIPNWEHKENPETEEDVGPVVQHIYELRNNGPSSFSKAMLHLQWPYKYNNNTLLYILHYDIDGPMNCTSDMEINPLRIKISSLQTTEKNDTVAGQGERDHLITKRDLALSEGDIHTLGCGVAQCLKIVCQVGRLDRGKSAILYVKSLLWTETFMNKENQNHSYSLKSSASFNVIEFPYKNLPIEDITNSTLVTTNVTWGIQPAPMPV
T1 sequence (P18084 24-719 limits assumed): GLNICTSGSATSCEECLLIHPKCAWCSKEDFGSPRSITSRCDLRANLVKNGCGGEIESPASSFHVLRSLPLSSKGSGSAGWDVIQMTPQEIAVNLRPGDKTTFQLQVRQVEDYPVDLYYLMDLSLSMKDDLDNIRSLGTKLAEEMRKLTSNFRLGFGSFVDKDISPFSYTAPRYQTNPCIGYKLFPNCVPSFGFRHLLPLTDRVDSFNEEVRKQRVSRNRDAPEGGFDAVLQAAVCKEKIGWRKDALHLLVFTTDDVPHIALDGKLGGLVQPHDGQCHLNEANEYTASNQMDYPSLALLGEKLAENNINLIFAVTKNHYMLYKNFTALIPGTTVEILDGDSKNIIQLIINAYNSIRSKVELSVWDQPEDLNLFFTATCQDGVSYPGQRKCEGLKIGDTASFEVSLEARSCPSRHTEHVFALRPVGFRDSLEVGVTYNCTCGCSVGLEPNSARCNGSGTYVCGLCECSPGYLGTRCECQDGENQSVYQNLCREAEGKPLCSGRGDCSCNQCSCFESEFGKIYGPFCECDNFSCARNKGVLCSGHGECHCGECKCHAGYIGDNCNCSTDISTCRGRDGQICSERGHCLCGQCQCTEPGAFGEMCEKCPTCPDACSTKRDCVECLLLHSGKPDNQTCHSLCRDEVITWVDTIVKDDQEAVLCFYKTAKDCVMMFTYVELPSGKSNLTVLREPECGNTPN

Molecule `COc1ccc(C(N)=O)cc1C(CC(=O)O)Cc1cc(OCCc2ccc3c(n2)NCCC3)n(C)n1` (stereo not drawn) [Example 47, 3-(5-carbamoyl-2-methoxyphenyl)-4-(1-methyl-5-(2-(5,6,7,8-tetrahydro-1,8-naphthyridin-2-yl)ethoxy)-1H-pyrazol-3-yl)butanoic Acid trifluoroacetate] has an IC50 [1] of 0.3 nM and an IC50 [2] of 13 nM.
In the case of `COc1ccc(C(=O)O)cc1C(CC(=O)O)Cc1cc(OCCc2ccc3c(n2)NCCC3)n(C)n1` (stereo not drawn) [Example 48, 3-(1-carboxy-3-(1-methyl-5-(2-(5,6,7,8-tetrahydro-1,8-naphthyridin-2-yl)ethoxy)-1H-pyrazol-3-yl)propan-2-yl)-4-methoxybenzoic Acid Trifluoroacetate], the IC50 [1] is reported as 0.7 nM and the IC50 [2] is reported as 230 nM.
`Cn1nc(CC(CC(=O)O)c2cccc(C(C)(C)C)c2)cc1OCCc1ccc2c(n1)NCCC2` (stereo not drawn) [Example 49, 3-(3-tert-butylphenyl)-4-[1-methyl-5-[2-(5,6,7,8-tetrahydro-1,8-naphthyridin-2-yl)ethoxy]pyrazol-3-yl]butanoic Acid Trifluoroacetate] gave an IC50 [1] of 0.4 nM and an IC50 [2] of 12 nM.
